Source: US20080223379A1, “METHODS AND COMPOSITIONS FOR THE TREATMENT OR PROPHYLAXIS OF TENDON AND LIGAMENT INJURY” (DOBAVET GmbH, priority 2007, published 2008)

System: tendon tissue damaged due to ruptured tendon fibrils and hematoma
Experiment: Oral calcium dobesilate therapy of tendon damage in horses, sonographic follow-up
Type: in vivo, horse
Settings: adult horses; 1400 mg with the food twice a day (corresponding to 4 mg/kg body weight/day); four months; sonography after one, two and four months; horses walked
Protocol: Calcium dobesilate was administered with the food in a dose of 1400 mg per adult horse, twice a day each (corresponding to 4 mg/kg body weight/day). The therapy is carried out for four months. Therapy progress is documented sonographically after one month, after two months and after four months. During therapy, the horses are walked.

O=S(=O)([O][Ca][O]S(=O)(=O)c1cc(O)ccc1O)c1cc(O)ccc1O [Calcium dobesilate, calcium dobesilate]
Sonographic therapy progression (structure and density of the tendon in the ultrasound image): the tendon sections hypoechogenic at the beginning of therapy show a physiological structure and density of the tendon in the ultrasound image at the end of therapy
